Assay results from patent US10857110B2, “Antibacterial compounds” (CONSEJO NACIONAL DE INVESTIGACIONES CIENTÍFICAS Y TÉCNICAS …, priority 2016, dated 2020).
Values after ≈ are worked out from the molar mass of the structure shown.

Assays:
[1] = tested on: Burkholderia seminalis (CBC 040); conditions: reference (1); cited from earlier work
[2] = tested on: Burkholderia multivorans (CBC 016); assay: MIC/MBC antibiotic sensitivity (CLSI); type: cell-based
Description: (§1) The new compounds of the invention were synthesized following the general method of preparation (Tetrahedron, 2001, 57, 1671-1675), from the reaction between an intermediary compound of the acyl thiourea and HgCl2 in presence of trimethylamine. The products were adequately characterized regarding its chemistry. The antibacterial activity of the new compounds was assayed against two Gram-positive reference strains: Staphylococcus aureus (ATCC6538) and Bacillus cereus (ATCC10876), a fermenting Gram-negative strain: Escherichia coli (ATCC25922), and 26 non-fermenting Gram-negative isolates, including 3 reference strains: Pseudomonas aeruginosa (PAO1), Bordetella bronchiseptica (9.73H+), and Inquilinus limosus (DSM16000), and 23 isolates recovered from patients suffering from cystic fibrosis, including one Achromobacter xylosoxidans isolate, and 22 isolates belonging to the Burkholderia cepacia complex. The later were selected because they presented resistance to a high number of antimicrobial compounds, among a panel of 125 clinical isolates previously analyzed for its resistance against 17 antimicrobial compounds (1,2). The antibiotic sensitivity studies were performed by applying two quantitative methods which allow to determine the minimum inhibitory concentration (MIC) and the minimum bactericidal concentration (MBC).
(§2) The compounds obtained in Examples 1 and 2 were assayed against 23 isolates recovered from the sputum of patients suffering from cystic fibrosis being treated at the Sor Maria Ludovica Children Hospital (La Plata, Buenos Aires, Argentina). Nineteen of these isolates were selected for being highly resistant to most of the antimicrobial agents of clinical use from a panel of 125 isolates previously characterized in Martina et al. (1). Reference strains were also included: Gram (+) bacteria: B. cereus and S. aureus, fermenting Gram (−) bacteria: E. coli, and non-fermenting Gram (−) bacteria: Inquilinus limosus (DSM16000), B. bronchiseptica, and Pseudomonas aeruginosa (PAO1). The antibiotic sensitivity studies were performed applying two quantitative methods which allow to determine the minimum inhibitory concentration (MIC) and the minimum bactericidal concentration (MBC) according to the criteria established by the Clinical and Laboratory Standards Institute (CLSI) (4). For comparative purposes, three antibiotics commonly used in the treatment of pulmonary infections in cystic fibrosis patients were included in the study: tobramycin, ceftazidime and meropenem.

[3] = tested on: Burkholderia multivorans (CBC 020); assay: MIC/MBC antibiotic sensitivity (CLSI); type: cell-based; conditions: Ceftazimide, CLSI criteria; B. multivorans (CBC 020)
Description: as §1, §2

[4] = tested on: Burkholderia multivorans (CBC 018); assay: MIC/MBC antibiotic sensitivity (CLSI); type: cell-based
Description: as §1, §2

[5] = tested on: Burkholderia cenocepacia (CBC 036); assay: MIC/MBC antibiotic sensitivity (CLSI); type: cell-based
Description: as §1, §2

[6] = tested on: Burkholderia cenocepacia (CBC 029); assay: MIC/MBC antibiotic sensitivity (CLSI); type: cell-based
Description: as §1, §2

B. contaminans (HNBC001) = assay: MIC/MBC antibiotic sensitivity (CLSI); type: cell-based; conditions: Ceftazimide, CLSI criteria
Description: as §1, §2

[7] = tested on: Burkholderia seminalis (CBC 042); assay: MIC/MBC antibiotic sensitivity (CLSI); type: cell-based; conditions: Ceftazimide, CLSI criteria; B. seminalis (CBC 042)
Description: as §1, §2

[8] = tested on: Staphylococcus aureus (ATCC6538); assay: MIC/MBC antibiotic sensitivity (CLSI); type: cell-based; conditions: S. aureus (ATCC6538)
Description: as §1, §2

[9] = tested on: Burkholderia cepacia (CBC 011); assay: MIC/MBC antibiotic sensitivity (CLSI); type: cell-based; conditions: Ceftazimide, CLSI criteria; B. cepacia (CBC 011)
Description: as §1, §2

[10] = tested on: Burkholderia multivorans (CBC 021); assay: MIC/MBC antibiotic sensitivity (CLSI); type: cell-based; conditions: Ceftazimide, CLSI criteria; B. multivorans (CBC 021)
Description: as §1, §2

[11] = tested on: Burkholderia seminalis (CBC 040); assay: MIC/MBC antibiotic sensitivity (CLSI); type: cell-based; conditions: Ceftazimide, CLSI criteria; B. seminalis (CBC 040)
Description: as §1, §2

[12] = tested on: Pseudomonas aeruginosa (PAO1); assay: MIC/MBC antibiotic sensitivity (CLSI); type: cell-based; conditions: P. aeruginosa (PAO1)
Description: as §1, §2

[13] = tested on: Burkholderia cenocepacia (HE001); assay: MIC/MBC antibiotic sensitivity (CLSI); type: cell-based; conditions: Ceftazimide, CLSI criteria; B. cenocepacia (HE001)
Description: as §1, §2

[14] = tested on: Burkholderia cenocepacia (CBC 024); assay: MIC/MBC antibiotic sensitivity (CLSI); type: cell-based
Description: as §1, §2

[15] = tested on: Burkholderia cepacia (CBC 010); assay: MIC/MBC antibiotic sensitivity (CLSI); type: cell-based; conditions: Ceftazimide, CLSI criteria; B. cepacia (CBC 010)
Description: as §1, §2

[16] = tested on: Burkholderia multivorans (CBC 019); assay: MIC/MBC antibiotic sensitivity (CLSI); type: cell-based; conditions: Ceftazimide, CLSI criteria; B. multivorans (CBC 019)
Description: as §1, §2

[17] = tested on: Bordetella bronchiseptica (9.73H+); assay: MIC/MBC antibiotic sensitivity (CLSI); type: cell-based; conditions: B. bronchiseptica (9.73H+)
Description: as §1, §2

[18] = tested on: Escherichia coli (ATCC25922); assay: MIC/MBC antibiotic sensitivity (CLSI); type: cell-based; conditions: E. coli (ATCC25922)
Description: as §1, §2

[19] = tested on: Bacillus cereus (ATCC10876); assay: MIC/MBC antibiotic sensitivity (CLSI); type: cell-based
Description: as §1, §2

[20] = tested on: Burkholderia multivorans (CBC 015); assay: MIC/MBC antibiotic sensitivity (CLSI); type: cell-based
Description: as §1, §2

[21] = tested on: Inquilinus limosus (DSM16000); assay: MIC/MBC antibiotic sensitivity (CLSI); type: cell-based; conditions: Ceftazimide, CLSI criteria
Description: as §1, §2

[22] = tested on: Burkholderia multivorans (CBC 022); assay: MIC/MBC antibiotic sensitivity (CLSI); type: cell-based; conditions: Ceftazimide, CLSI criteria; B. multivorans (CBC 022)
Description: as §1, §2

[23] = tested on: Burkholderia cenocepacia (CBC 033); assay: MIC/MBC antibiotic sensitivity (CLSI); type: cell-based
Description: as §1, §2

[24] = tested on: Burkholderia cenocepacia (CBC 023); assay: MIC/MBC antibiotic sensitivity (CLSI); type: cell-based; conditions: Ceftazimide, CLSI criteria; B. cenocepacia (CBC 023)
Description: as §1, §2

[25] = tested on: Burkholderia cenocepacia (CBC 035); assay: MIC/MBC antibiotic sensitivity (CLSI); type: cell-based
Description: as §1, §2

[26] = tested on: Burkholderia cenocepacia (CBC 031); assay: MIC/MBC antibiotic sensitivity (CLSI); type: cell-based
Description: as §1, §2

[27] = tested on: Burkholderia cenocepacia (CBC 032); assay: MIC/MBC antibiotic sensitivity (CLSI); type: cell-based
Description: as §1, §2

[28] = tested on: Achromobacter xylosaxidans (HNA001); assay: MIC/MBC antibiotic sensitivity (CLSI); type: cell-based, Achromobacter xylosoxidans; conditions: Ceftazimide, CLSI criteria; A. xylosaxidans (HNA001)
Description: as §1, §2

B. cenacepacia (FQC2524) = assay: MIC/MBC antibiotic sensitivity (CLSI); type: cell-based, B. cenocepacia; conditions: Ceftazimide, CLSI criteria
Description: as §1, §2

CCn1cc(C(=O)O)c(=O)c2ccc(C)nc21 [nalidixic acid]
resistance of the strain to commercial antibiotics [1]: resistant

CC(C)(O/N=C(\C(=O)N[C@@H]1C(=O)N2C(C(=O)[O-])=C(C[n+]3ccccc3)CS[C@H]12)c1csc(N)n1)C(=O)O [Ceftazimide, ceftazidime]
MBC ([2]; Burkholderia multivorans (CBC 016)): 3.9 µg/mL (≈ 7.14 µM) | MIC (R/I/S category) ([2]; Ceftazimide, CLSI criteria, B. multivorans (CBC 016)): S (<8 μg/ml S) | MIC (R/I/S category) [3]: R (>32 μg/ml R) | MBC ([4]; Burkholderia multivorans (CBC 018)): 7.81 µg/mL (≈ 14.3 µM) | MIC (R/I/S category) ([4]; Ceftazimide, CLSI criteria, B. multivorans (CBC 018)): S (<8 μg/ml S) | MBC ([5]; Burkholderia cenocepacia (CBC 036)): 15.62 µg/mL (≈ 28.6 µM) | MIC (R/I/S category) ([5]; Ceftazimide, CLSI criteria, B. cenocepacia (CBC 036)): S (<8 μg/ml S) | MBC ([6]; Burkholderia cenocepacia (CBC 029)): 15.62 µg/mL (≈ 28.6 µM) | MIC (R/I/S category) ([6]; Ceftazimide, CLSI criteria, B. cenocepacia (CBC 029)): S (<8 μg/ml S) | MIC (R/I/S category) (B. contaminans (HNBC001)): S (<8 μg/ml S) | MIC (R/I/S category) [7]: R (>32 μg/ml R) | MBC [8]: 7.81 µg/mL (≈ 14.3 µM) | MIC [8]: 7.81 µg/mL (≈ 14.3 µM) | MIC (R/I/S category) [9]: R (>32 μg/ml R) | MIC (R/I/S category) [10]: R (>32 μg/ml R) | MIC (R/I/S category) [11]: R (>32 μg/ml R) | MBC [12]: 1.95 µg/mL (≈ 3.57 µM) | MIC [12]: 1.95 µg/mL (≈ 3.57 µM) | MIC (R/I/S category) [13]: R (>32 μg/ml R) | MBC ([14]; Burkholderia cenocepacia (CBC 024)): 7.81 µg/mL (≈ 14.3 µM) | MIC (R/I/S category) ([14]; Ceftazimide, CLSI criteria, B. cenocepacia (CBC 024)): S (<8 μg/ml S) | MIC (R/I/S category) [15]: R (>32 μg/ml R) | MIC (R/I/S category) [16]: R (>32 μg/ml R) | MBC [17]: 62.5 µg/mL (≈ 114 µM) | MIC [17]: 7.81 µg/mL (≈ 14.3 µM) | MBC [18]: 0.97 µg/mL (≈ 1.77 µM) | MIC [18]: 0.97 µg/mL (≈ 1.77 µM) | MBC [19]: 0.97 µg/mL (≈ 1.77 µM) | MIC [19]: 0.97 µg/mL (≈ 1.77 µM) | MBC ([20]; Burkholderia multivorans (CBC 015)): 7.81 µg/mL (≈ 14.3 µM) | MIC (R/I/S category) ([20]; Ceftazimide, CLSI criteria, B. multivorans (CBC 015)): S (<8 μg/ml S) | MIC (R/I/S category) [21]: R (>32 μg/ml R) | MIC (R/I/S category) [22]: R (>32 μg/ml R) | MBC ([23]; Burkholderia cenocepacia (CBC 033)): 31.25 µg/mL (≈ 57.2 µM) | MIC (R/I/S category) ([23]; Ceftazimide, CLSI criteria, B. cenocepacia (CBC 033)): S (<8 μg/ml S) | MIC (R/I/S category) [24]: R (>32 μg/ml R) | MBC ([25]; Burkholderia cenocepacia (CBC 035)): 15.62 µg/mL (≈ 28.6 µM) | MIC (R/I/S category) ([25]; Ceftazimide, CLSI criteria, B. cenocepacia (CBC 035)): S (<8 μg/ml S) | MBC ([26]; Burkholderia cenocepacia (CBC 031)): 7.81 µg/mL (≈ 14.3 µM) | MIC (R/I/S category) ([26]; Ceftazimide, CLSI criteria, B. cenocepacia (CBC 031)): S (<8 μg/ml S) | MBC ([27]; Burkholderia cenocepacia (CBC 032)): 7.81 µg/mL (≈ 14.3 µM) | MIC (R/I/S category) ([27]; Ceftazimide, CLSI criteria, B. cenocepacia (CBC 032)): S (<8 μg/ml S) | resistance of the strain to commercial antibiotics [1]: resistant | MIC (R/I/S category) [28]: S (<8 μg/ml S) | MIC (R/I/S category) (B. cenacepacia (FQC2524)): S (<8 μg/ml S)

CC1(C)S[C@@H]2[C@H](NC(=O)[C@H](N)c3ccccc3)C(=O)N2[C@H]1C(=O)O [ampicillin]
resistance of the strain to commercial antibiotics [1]: resistant

O=C(O)c1cn(C2CC2)c2cc(N3CCNCC3)c(F)cc2c1=O [ciprofloxacin]
resistance of the strain to commercial antibiotics [1]: resistant

gentamicin
resistance of the strain to commercial antibiotics [1]: resistant

CO/N=C(\C(=O)N[C@@H]1C(=O)N2C(C(=O)O)=C(COC(C)=O)CS[C@H]12)c1csc(N)n1 [cefotaxim]
resistance of the strain to commercial antibiotics [1]: resistant

CC(=O)OCC1=C(C(=O)O)N2C(=O)[C@@H](NC(=O)Cc3cccs3)[C@H]2SC1 [cefalotin]
resistance of the strain to commercial antibiotics [1]: resistant

CO[C@@]1(NC(=O)Cc2cccs2)C(=O)N2C(C(=O)O)=C(COC(N)=O)CS[C@@H]21 [cefoxitin]
resistance of the strain to commercial antibiotics [1]: resistant

colistin
resistance of the strain to commercial antibiotics [1]: resistant

NCC[C@H](O)C(=O)N[C@@H]1C[C@H](N)[C@@H](O[C@H]2O[C@H](CN)[C@@H](O)[C@H](O)[C@H]2O)[C@H](O)[C@H]1O[C@H]1O[C@H](CO)[C@@H](O)[C@H](N)[C@H]1O [amikacin]
resistance of the strain to commercial antibiotics [1]: resistant

CO/N=C(\C(=O)N[C@@H]1C(=O)N2C(C(=O)[O-])=C(C[N+]3(C)CCCC3)CS[C@H]12)c1csc(N)n1 [cefepime]
resistance of the strain to commercial antibiotics [1]: resistant
